Tests used:
small cell lung cancer = assay: Clinical treatment outcome of the patients the circulating tumor cells were taken from; format: in vivo, human; conditions: treated clinically
Excerpt: As can be known from FIG. 54, in the presence of cisplatin, etoposide, and Topotecan, the survival rate of the circulating tumor cells 21 derived the blood of the first patient is more than 85%, and there is no significant decrease compared with the control group Ctrl.
As can be known from FIG. 55, in the presence of cisplatin and topotecan, the survival rate of the expanded circulating tumor cells 21 from the second patient is less than 20%, and there is significant decrease compared with the control group Ctrl. […] In combination with the outcome where the patient is treated with cisplatin, etoposide, and Topotecan clinically, it can be further confirmed that the cisplatin and topotecan respond well to small cell lung cancer in the second patients, that is, have therapeutic effect.

[1] = tested on: circulating tumor cells derived from patients with small cell lung cancer; assay: CellTiter Luminescent cell viability of expanded circulating tumor cells treated with drugs; format: cell-based, human; conditions: expanded circulating tumor cells from the second small cell lung cancer patient; FIG. 55; result in words
Protocol: In some embodiments, the preparation of the cell solution can be performed as follows. 5 ml of blood is sampled respectively patients having breast cancer, pancreatic cancer, and small cell lung cancer. 15 ml of Ficoll-Paque is added to a Leucosep™ centrifuge tube and centrifuged. The blood is diluted in phosphate buffered saline (PBS) and transferred to the Leucosep™ centrifuge tube, followed by centrifugation. After centrifugation, the supernatant in the Leucosep™ centrifuge tube is removed, and the retained lower solution is a monocyte phase. A circulating tumor cell enriched antibody mixture (RosetteSep™ CTC Enrichment Cocktail Containing AntiCD56) is added to the monocyte phase, and mixed at room temperature. After mixing, a PBS buffer containing 2% (v/v) Fetal Bovine Serum (FSB) is added and mixed to give a monocyte solution. Also, the monocyte solution is added to Ficoll-Paque and centrifuged at room temperature. […]
According to the above procedure, the circulating tumor cells 21 are isolated from the blood of two patients with small cell lung cancer and cultured. […] The cell viability was measured by CellTiter Luminescent cell viability and the survival rate is calculated by the following formula:
Cell survival rate (%)=(luminescence density in the treated group/luminescence density in the control group)×100%. […]

CC[C@@]1(O)C(=O)OCc2c1cc1n(c2=O)Cc2cc3c(CN(C)C)c(O)ccc3nc2-1 [Topotecan]
Clinical therapeutic effect on small cell lung cancer (small cell lung cancer; first patient): no significant therapeutic effect | Clinical therapeutic effect on small cell lung cancer (small cell lung cancer; second patient): respond well

N.N.[Cl][Pt][Cl] [cisplatin]
Clinical therapeutic effect on small cell lung cancer (small cell lung cancer; first patient): no significant therapeutic effect | Clinical therapeutic effect on small cell lung cancer (small cell lung cancer; second patient): respond well

COc1cc([C@@H]2c3cc4c(cc3[C@@H](O[C@@H]3O[C@@H]5CO[C@@H](C)O[C@H]5[C@H](O)[C@H]3O)[C@H]3COC(=O)[C@H]23)OCO4)cc(OC)c1O [etoposide]
Clinical therapeutic effect on small cell lung cancer (small cell lung cancer; first patient): no significant therapeutic effect | Cell survival rate compared with control group [1]: lower than the control group Ctrl

Reference: US20190300832A1, “METHOD AND KIT FOR EXPANDING CIRCULATING TUMOR CELLS IN VITRO” (Taipei Medical University, priority 2018, published 2019)
